The target of test [1] is T1, Casein kinase II subunit alpha (Homo sapiens, UniProt P68400). The test can be described thus: Competitive inhibition of human wild type CK2alpha by Dixon plot analysis.
Test [2] has as its target T1, Casein kinase II subunit alpha. The test is described as follows: Inhibition of human wild type CK2alpha.
Test [3] has the same target. The test is described as follows: Inhibition of CK2alpha (unknown origin).
Test [4] deals with T2, Adenosine kinase (Toxoplasma gondii) (UniProt Q9TVW2).
T2 sequence (whole entry): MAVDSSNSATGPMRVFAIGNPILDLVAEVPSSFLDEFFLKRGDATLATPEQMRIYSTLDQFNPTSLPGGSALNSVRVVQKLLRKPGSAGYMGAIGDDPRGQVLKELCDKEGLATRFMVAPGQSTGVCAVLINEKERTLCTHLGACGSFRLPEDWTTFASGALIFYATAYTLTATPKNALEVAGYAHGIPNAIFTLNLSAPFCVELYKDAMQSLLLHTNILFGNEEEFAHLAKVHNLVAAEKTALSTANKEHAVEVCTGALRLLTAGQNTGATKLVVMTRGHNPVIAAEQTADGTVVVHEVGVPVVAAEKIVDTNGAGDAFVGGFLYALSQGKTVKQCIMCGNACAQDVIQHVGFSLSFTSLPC
The test can be described thus: Binding affinity to Toxoplasma gondii adenosine kinase assessed as formation of [14C]AMP from [14C]adenosine and ATP after 10 mins by liquid scintillation counting method relative to control.

The target in test [5] is Human immunodeficiency virus type 1 reverse transcriptase (Human immunodeficiency virus 1) (UniProt Q72547). The test is described as follows: Binding affinity to HIV1 reverse transcriptase relative to control.
For test [6], the target named is Casein kinase II (Homo sapiens, UniProt P19784+P67870+P68400). The test is described as follows: Inhibition of CK2 (unknown origin). It counts as protein-complex assay.
In test [7] the target is Cellular tumor antigen p53 (Homo sapiens, UniProt P04637, Y220C). The test can be described thus: Stabilization of human p53 Y220C mutant by differential scanning calorimetry. In general terms: DSC measures the heat that a sample takes up or gives off during a temperature scan.

T1 sequence (P68400 whole entry): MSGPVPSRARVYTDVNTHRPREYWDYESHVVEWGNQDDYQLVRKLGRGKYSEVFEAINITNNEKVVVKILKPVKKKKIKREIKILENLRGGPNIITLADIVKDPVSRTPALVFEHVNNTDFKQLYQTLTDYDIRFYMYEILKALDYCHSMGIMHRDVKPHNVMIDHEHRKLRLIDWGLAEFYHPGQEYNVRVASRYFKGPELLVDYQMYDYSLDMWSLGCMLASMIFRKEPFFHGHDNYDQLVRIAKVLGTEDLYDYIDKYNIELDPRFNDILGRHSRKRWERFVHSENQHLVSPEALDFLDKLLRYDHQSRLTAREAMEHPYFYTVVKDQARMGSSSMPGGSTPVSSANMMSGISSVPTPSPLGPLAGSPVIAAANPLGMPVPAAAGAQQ
Sequence of Casein kinase II (P67870 whole entry): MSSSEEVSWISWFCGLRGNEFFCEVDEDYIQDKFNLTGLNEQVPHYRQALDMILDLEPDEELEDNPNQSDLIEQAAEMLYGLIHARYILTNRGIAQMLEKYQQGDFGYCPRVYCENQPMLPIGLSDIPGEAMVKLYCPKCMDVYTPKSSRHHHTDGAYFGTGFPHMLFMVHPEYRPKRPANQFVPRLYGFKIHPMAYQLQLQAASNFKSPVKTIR
Sequence of Casein kinase II (P68400 whole entry): as the sequence (P68400 whole entry) above
Sequence of Casein kinase II (P19784 whole entry): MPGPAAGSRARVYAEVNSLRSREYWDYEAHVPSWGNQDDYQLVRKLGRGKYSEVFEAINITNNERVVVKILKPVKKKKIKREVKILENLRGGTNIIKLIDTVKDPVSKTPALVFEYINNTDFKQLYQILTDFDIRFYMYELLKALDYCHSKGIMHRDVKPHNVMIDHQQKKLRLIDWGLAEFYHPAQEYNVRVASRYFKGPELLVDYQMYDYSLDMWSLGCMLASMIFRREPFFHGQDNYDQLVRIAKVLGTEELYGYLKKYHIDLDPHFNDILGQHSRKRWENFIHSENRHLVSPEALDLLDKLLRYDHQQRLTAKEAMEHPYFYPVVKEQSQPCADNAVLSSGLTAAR

As usually defined, the Ki is a measure of affinity in units of concentration, obtained from inhibition or displacement. Higher therefore signals lower affinity. For `CS(=O)(=O)c1nc2c(Br)c(Br)c(Br)c(Br)c2[nH]1`, the affinity in test [1] corresponds to a Ki of 150 nM. Same read-out and setting: the value for `Clc1c(Cl)c(I)c2[nH]cnc2c1I` was 300 nM. In test [2], `S=c1[nH]c2c(Br)c(Br)c(Br)c(Br)c2[nH]1` came in with an inhibitory constant (Ki) of 70 nM.

Regarding `FC(F)(F)c1nc2c(Br)c(Br)c(Br)c(Br)c2[nH]1`, the Ki in test [3] came to 400 nM. In the case of `Nc1ncnc2c1c(I)cn2[C@@H]1O[C@H](CO)[C@@H](O)[C@H]1O`, the fold change (FC) in test [4] turned out to be 200.

Regarding `Cc1nc2c(I)c(Cl)c(Cl)c(I)c2[nH]1`, in test [1], the Ki is 200 nM. Regarding `O=c1[nH]ccc(Oc2ccccc2)c1I`, in test [5], the fold change (FC) came to 300. As for `S=C1NC2C(I)=C(I)C(I)=C(I)C2N1` (stereo not given), the affinity in test [6] corresponds to a Ki of 200 nM.

Regarding `FC(F)(F)c1nc2c(I)c(I)c(I)c(I)c2[nH]1`, the Ki in test [6] came to 370 nM. The term Kd denotes the free concentration of one partner at which half of the binding sites on the other are occupied at equilibrium, for simple one-to-one binding. Read a low Kd as tighter binding. With `CCn1c2ccccc2c2cc(CNC)ccc21`, the affinity in test [7], expressed as Kd, was 150000 nM.

The values above are taken from ChEMBL document CHEMBL3792305, “Computational Tools To Model Halogen Bonds in Medicinal Chemistry” (J Med Chem, 2016).
